Results reported in article PMC9965125, “New NSAID Conjugates as Potent and Selective COX-2 Inhibitors: Synthesis, Molecular Modeling and Biological Investigation” (Molecules, 2023).
“And” between values parts separate entries of the source, which are not always exact repeats. Identical values can stand only once.

Experiments:
[1] = system: carrageenan induced paw edema; assay: carrageenan-induced rat paw edema; assay type: in vivo; conditions: for % Inhibition of Edema ± Standard Error / Mean Edema Thickness: 10 mg/kg indomethacin mol equivalent i.p.; for Mean Edema Thickness: ± standard error
Description: Anti-inflammatory activity screening
The anti-inflammatory activity of the tested compounds was determined in-vivo by the acute carrageenan induced paw edema standard method in rats. Adult Wister rats of either sex (pregnant female animals were excluded) weighing 120–150 g were divided into 19 groups of 6 animals each. The tested compounds dissolved in DMSO, at a dose of 10 mg kg-1 (rat body […]
inflammation. The control group was given DMSO only. Paw edema was induced by subcutaneous injection of freshly prepared 1% solution of carrageenan in saline (0.9%, 0.1 ml per rat) into subplantar tissue of the right hind paw of rats. The thickness of the paw was measured (in mm) after successive time intervals (1, 2, 3, 4 and 24 h) and compared with the initial hind paw thickness of each rat for determining the edema thickness. Data were collected, checked, revised and analyzed (SPSS 16). Quantitative variables from normal distribution were expressed as means ± SE “standard error”. The anti-inflammatory activity was expressed as percentage inhibition of edema thickness in treated animals in comparison with the control group according to eqn. (1) […]
% Inhibition of edema= Vc-Vt x 100 … .. (1)
Where, Vc and Vt are the means of edema paw thickness for the control and tested compound treated animal groups, respectively.
The potency of the tested compounds was expressed as % inhibition of edema thickness […]
% Potency = % inhibition of edema for the tested compound treated group x 100 … . (2)

[2] = system: acetic acid-induced abdominal writhing; assay: acetic acid-induced abdominal writhing assay (peripheral analgesic); assay type: in vivo, mice; conditions: for % Inhibition/Protection / Writing Reflex ± SE: 10 mg/kg indomethacin mol equivalent i.p.; for Potency: % inhibition/protection compared to indomethacin; for Writing Reflex ± SE: number of writhing counted for 30 min
Description: Peripheral analgesic testing
Peripheral analgesic activity was measured by the standard acetic acid-induced writhing […]
One hour after intraperitoneally (i,p.) administration of 10 mg kg−1 (mice body weight) […]
distilled/sterile water by the aid of two drops of Tween 80, each mouse was injected with 0.1 ml of 1% acetic acid solution i.p. The control group animals were given sterile/distilled water only with few drops of Tween 80. Starting 5 min after the acetic acid injection, the number of muscular contractions in each mouse was counted for 30 min. A significant reduction in the number of writhing by any test compound as compared to control animals was considered as a positive analgesic response. Percentage protection was calculated according to equ. (3), where n stands for the average number of writhing in the control group and n' is the average number of writhing in the treated group. The % potency was calculated by equ. (4) (Table 2).
% Inhibition/protection = n−n′ x100 … . (3)

hot plate latency = assay: hot plate assay (central analgesic); assay type: in vivo, mice; conditions: for % Protection / Latency Period ± SE: 10 mg/kg indomethacin mol equivalent i.p.; for Latency Period ± SE: cutoff 15 sec; for Potency: at 120 min compared to indomethacin
Description: The % potency was calculated by equ. (4) (Table 2). […]
% Potency = % protection of the tested compound x 100 ……. (4) […]
Central analgesic (hot plate) testing
The standard hot plate technique was undertaken by in vivo standard hot plate test [ 1,2]. […]
by placing them on a hot plate maintained at 55 ± 1 °C, 30 min. […]
suspended in sterile/distilled water by the ai d of two drops of Tween 80, and recording the reaction time in seconds for forepaw licking or jumping. The control group animals were given sterile/distilled water only with few drops of Tween 80. The maximum cutoff time was chosen as 15 sec. to prevent tissue damage. Response latencies were measured 30, 60, 90 and 120 min. after the application. The % protection was calculated by equ. ( 5) where, T1, T0 are the latency time mean of the tested compound and control group, respectively (Table 3).

Compound	% Inhibition of Edema ± Standard Error ([1]; 1 h) [%]	% Inhibition of Edema ± Standard Error ([1]; 24 h) [%]	% Inhibition/Protection [2] [%]	Potency [2] [%]	Writing Reflex ± SE [2]	% Protection (hot plate latency; after 30 min) [%]	Latency Period ± SE (hot plate latency; after 30 min) [s]	% Protection (hot plate latency; after 60 min) [%]	Latency Period ± SE (hot plate latency; after 60 min) [s]	% Protection (hot plate latency; after 90 min) [%]	Latency Period ± SE (hot plate latency; after 90 min) [s]	Latency Period ± SE (hot plate latency; after 120 min) [s]	Potency (hot plate latency)	% Inhibition of Edema ± Standard Error ([1]; 4 h) [%]	% Protection (hot plate latency; after 120 min) [%]	further results
CC(C)Cc1ccc(C(C)C(=O)OCc2cn(-c3ccc(F)cc3)nn2)cc1 (stereo not drawn) [Compound 5c, (1-(4-Fluorophenyl)-1H-1,2,3-triazol-4-yl)methyl 2-(4-isobutylphenyl)propanoate]	0.00 ± 1.0	0.00 ± 0.2	83.3	116.0	6.7 ± 0.5	112.1	14.17 ± 2.6	106.3	15.0 ± 2.3	67.3	14.91 ± 2.5	10.63 ± 1.8	31.9	–	–	% Protection (hot plate latency; after 120 min, 10 mg/kg): 18%; % protection relative to its parent drug ibuprofen (hot plate latency; at 30 min): 1.8 folds
COc1ccc(-n2cc(COC(=O)C(C)c3ccc(CC(C)C)cc3)nn2)cc1 (stereo not drawn) [Compound 5f, (1-(4-Methoxyphenyl)-1H-1,2,3-triazol-4-yl)methyl 2-(4-isobutylphenyl)propanoate]	–	2.5 ± 0.9	80.0	111.4	8.0 ± 1.4	90.1	12.7 ± 0.9	56.8	11.40 ± 1.5	19.0	10.60 ± 1.9	9.03 ± 1.6	0.4	1.8 ± 0.7	0.2	–
CC(C)Cc1ccc(C(C)C(=O)OCc2cn(-c3ccc([N+](=O)[O-])cc3)nn2)cc1 (stereo not drawn) [Compound 5g, (1-(4-Nitrophenyl)-1H-1,2,3-triazol-4-yl)methyl 2-(4-isobutylphenyl)propanoate]	34.0 ± 1.8	0.00 ± 0.5	65.0	90.5	14.0 ± 1.9	87.1	12.5 ± 2.1	73.2	12.59 ± 1.5	19.0	10.60 ± 2.6	11.54 ± 2.2	49.7	–	28.1	–
COc1ccc2c(c1)c(CC(=O)OCc1cn(-c3ccccc3Cl)nn1)c(C)n2C(=O)c1ccc(Cl)cc1 [Compound 8a, (1-(2-Chlorophenyl)-1H-1,2,3-triazol-4-yl)methyl 2-(1-(4-chlorobenzoyl)-5-methoxy-2-methyl-1H-indol-3-yl)acetate]	0.00 ± 1.5	–	49.3	68.7	20.3 ± 1.8	82.5	12.19 ± 1.9	85.8	13.51 ± 1.7	55.4	13.85 ± 1.4	13.63 ± 1.3	90.8	26.9 ± 1.1	51.3	Mean Edema Thickness ([1]; 1 h): 0.863 ± 0.07 mm; % Inhibition of Edema ± Standard Error ([1]; 2 h): 44.9 ± 1.7%; Mean Edema Thickness ([1]; 2 h): 0.393 ± 0.08 mm; % Inhibition of Edema ± Standard Error ([1]; 3 h, 10 mg/kg): 32.5% and 32.5 ± 1.5%; Mean Edema Thickness ([1]; 3 h): 0.488 ± 0.07 mm; Mean Edema Thickness ([1]; 4 h): 0.521 ± 0.03 mm; % Inhibition of Edema ± Standard Error ([1]; 24 h, 10 mg/kg): 33.3% and 33.3 ± 2.4%; Mean Edema Thickness ([1]; 24 h): 0.614 ± 0.09 mm; % Potency ([1]; % inhibition of edema thickness relative to indomethacin at 3 h): 40.1%
COc1ccc2c(c1)c(CC(=O)OCc1cn(-c3ccc(Cl)cc3)nn1)c(C)n2C(=O)c1ccc(Cl)cc1 [Compound 8b, (1-(4-Chlorophenyl)-1H-1,2,3-triazol-4-yl)methyl 2-(1-(4-chlorobenzoyl)-5-methoxy-2-methyl-1H-indol-3-yl)acetate]	–	–	46.3	64.5	21.5 ± 1.5	2.4	6.84 ± 1.4	14.3	8.31 ± 1.9	11.2	9.91 ± 1.7	9.88 ± 2.0	17.2	–	9.7	anti-inflammatory efficacy (in words) ([1]; carrageenan-induced rat paw edema): no anti-inflammatory efficacy
COc1ccc2c(c1)c(CC(=O)OCc1cn(-c3ccc(F)cc3)nn1)c(C)n2C(=O)c1ccc(Cl)cc1 [Compound 8c, (1-(4-Fluorophenyl)-1H-1,2,3-triazol-4-yl)methyl 2-(1-(4-chlorobenzoyl)-5-methoxy-2-methyl-1H-indol-3-yl)acetate]	–	0.00 ± 1.0	41.3	57.5	23.5 ± 1.4	69.5	11.32 ± 0.8	29.2	9.39 ± 1.1	27.9	11.40 ± 1.6	13.34 ± 1.8	85.1	–	48.1	–
COc1ccc2c(c1)c(CC(=O)OCc1cn(-c3ccc(C)cc3)nn1)c(C)n2C(=O)c1ccc(Cl)cc1 [Compound 8d, (1-(p-Tolyl)-1H-1,2,3-triazol-4-yl)methyl 2-(1-(4-chlorobenzoyl)-5-methoxy-2-methyl-1H-indol-3-yl)acetate]	0.00 ± 0.8	0.00 ± 0.4	62.5	87.0	15.0 ± 1.6	97.8	13.21 ± 2.5	74.0	12.65 ± 2.0	50.1	13.37 ± 1.6	13.39 ± 1.2	86.0	0.00 ± 0.6	48.6	% Inhibition of Edema ± Standard Error ([1]; 3 h): 0.00 ± 0.5%
